Source: paper PMC11124822, “Discovery and Anticancer Screening of Novel Oxindole-Based Derivative Bearing Pyridyl Group as Potent and Selective Dual FLT3/CDK2 Kinase Inhibitor” (Pharmaceuticals, 2024)

Assays:
HCC-2998 = test: NCI-60 antiproliferative screen (SRB); assay type: cell-based, human; settings: Homo sapiens; 10 µM single dose, 48 h; HCC-2998 (Colon); read-out: Growth inhibition (%)
IGROV1 = test: NCI-60 antiproliferative screen (SRB); assay type: cell-based, human; settings: Homo sapiens, IGROV-1; 10 µM single dose, 48 h; IGROV1 (Ovarian); read-out: Growth inhibition (%)
SNB-75 = test: NCI-60 antiproliferative screen (SRB); settings: Homo sapiens, SNB-75, 48 h, read-out: Growth inhibition (%)
Method: Anticancer activity was tested against 60 cancer cell lines (NCI-60) after 48h treatments with a single dosage of 10 μM of compounds by using sulforhodamine B assay [39] on the traditional 96-well platform. […] The human cancer cell lines of the NCI-60 panel are grown in RPMI 1640 medium supplemented with 5% FBS (fetal bovine serum) and 2 mM L-glutamine. […] For further analysis of promising compounds, five dose screens were performed against the NCI-60 panel. Drug treatments are performed in 5 doses using 10-fold or ½ log dose dilutions.

SW-620 = test: NCI-60 antiproliferative screen (SRB); assay type: cell-based, human; settings: Homo sapiens; 10 µM single dose, 48 h; SW-620 (Colon); read-out: Growth inhibition (%)
NCI-H522 = test: NCI-60 antiproliferative screen (SRB); assay type: cell-based, human; settings: Homo sapiens; 10 µM single dose, 48 h; NCI-H522 (NSCLC); read-out: Growth inhibition (%)
SR = test: NCI-60 antiproliferative screen (SRB); settings: Homo sapiens, 48 h, read-out: Growth inhibition (%)
T-47D = test: NCI-60 antiproliferative screen (SRB); assay type: cell-based, human; settings: Homo sapiens, T47D; 10 µM single dose, 48 h; T-47D (Breast); read-out: Growth inhibition (%)
UO-31 = test: NCI-60 antiproliferative screen (SRB); assay type: cell-based, human; settings: Homo sapiens; 10 µM single dose, 48 h; UO-31 (Renal); read-out: Growth inhibition (%)
UACC-62 = test: NCI-60 antiproliferative screen (SRB); assay type: cell-based, human; settings: Homo sapiens; 10 µM single dose, 48 h; UACC-62 (Melanoma); read-out: Growth inhibition (%)
SF-539 = test: NCI-60 antiproliferative screen (SRB); assay type: cell-based, human; settings: Homo sapiens; 10 µM single dose, 48 h; SF-539 (CNS); read-out: Growth inhibition (%)
MOLT-4 = test: NCI-60 antiproliferative screen (SRB); assay type: cell-based; settings: Homo sapiens; 10 µM single dose, 48 h; MOLT-4 (Leukemia); read-out: Growth inhibition (%)
HT29 = test: NCI-60 antiproliferative screen (SRB); assay type: cell-based, human; settings: Homo sapiens, HT-29; 10 µM single dose, 48 h; HT29 (Colon); read-out: Growth inhibition (%)
EKVX = test: NCI-60 antiproliferative screen (SRB); assay type: cell-based, human; settings: Homo sapiens; 10 µM single dose, 48 h; EKVX (NSCLC); read-out: Growth inhibition (%)
CAKI-1 = test: NCI-60 antiproliferative screen (SRB); assay type: cell-based, human; settings: Homo sapiens; 10 µM single dose, 48 h; CAKI-1 (Renal); read-out: Growth inhibition (%)
HOP-62 = test: NCI-60 antiproliferative screen (SRB); assay type: cell-based, human; settings: Homo sapiens; 10 µM single dose, 48 h; HOP-62 (NSCLC); read-out: Growth inhibition (%)
COLO 205 = test: NCI-60 antiproliferative screen (SRB); assay type: cell-based, human; settings: Homo sapiens; 10 µM single dose, 48 h; COLO 205 (Colon); read-out: Growth inhibition (%)
SK-OV-3 = test: NCI-60 antiproliferative screen (SRB); assay type: cell-based, human; settings: Homo sapiens; 10 µM single dose, 48 h; SK-OV-3 (Ovarian); read-out: Growth inhibition (%)
HL-60(TB) = test: NCI-60 antiproliferative screen (SRB); assay type: cell-based, human; settings: Homo sapiens; 10 µM single dose, 48 h; HL-60(TB) (Leukemia); read-out: Growth inhibition (%)
[1] = test system: NCI-60 human cancer cell lines; test: NCI-60 screen, full panel summary; assay type: cell-based; settings: 10 µM single dose; for Mean Growth Percent: all NCI-60 cell lines; for inhibition at 10 µM: Homo sapiens, read-out: Range of Growth Inhibition on All Cells
Method: In a comprehensive test, compounds were assayed at a single dose concentration (10^−5 M) in the full panel of NCI-60 cancer cell lines.

MALME-3M = test: NCI-60 antiproliferative screen (SRB); assay type: cell-based, human; settings: Homo sapiens; 10 µM single dose, 48 h; MALME-3M (Melanoma); read-out: Growth inhibition (%)
HCT-15 = test: NCI-60 antiproliferative screen (SRB); assay type: cell-based, human; settings: Homo sapiens; 10 µM single dose, 48 h; HCT-15 (Colon); read-out: Growth inhibition (%)
NCI-H322M = test: NCI-60 antiproliferative screen (SRB); assay type: cell-based, human; settings: Homo sapiens; 10 µM single dose, 48 h; NCI-H322M (NSCLC); read-out: Growth inhibition (%)
LOX IMVI = test: NCI-60 antiproliferative screen (SRB); assay type: cell-based, human; settings: Homo sapiens; 10 µM single dose, 48 h; LOX IMVI (Melanoma); read-out: Growth inhibition (%)
NCI-H226 = test: NCI-60 antiproliferative screen (SRB); assay type: cell-based, human; settings: Homo sapiens; 10 µM single dose, 48 h; NCI-H226 (NSCLC); read-out: Growth inhibition (%)
SN12C = test: NCI-60 antiproliferative screen (SRB); assay type: cell-based, human; settings: Homo sapiens; 10 µM single dose, 48 h; SN12C (Renal); read-out: Growth inhibition (%)
M14 = test: NCI-60 antiproliferative screen (SRB); assay type: cell-based, human; settings: Homo sapiens; 10 µM single dose, 48 h; M14 (Melanoma); read-out: Growth inhibition (%)
SK-MEL-5 = test: NCI-60 antiproliferative screen (SRB); assay type: cell-based, human; settings: Homo sapiens; 10 µM single dose, 48 h; SK-MEL-5 (Melanoma); read-out: Growth inhibition (%)
KM12 = test: NCI-60 antiproliferative screen (SRB); assay type: cell-based, human; settings: Homo sapiens; 10 µM single dose, 48 h; KM12 (Colon); read-out: Growth inhibition (%)
SNB-19 = test: NCI-60 antiproliferative screen (SRB); assay type: cell-based, human; settings: Homo sapiens; 10 µM single dose, 48 h; SNB-19 (CNS); read-out: Growth inhibition (%)
MDA-MB-435 = test: NCI-60 antiproliferative screen (SRB); assay type: cell-based, human; settings: Homo sapiens; 10 µM single dose, 48 h; MDA-MB-435 (Melanoma); read-out: Growth inhibition (%)

Compound	inhibition at 10 µM (HCC-2998)	inhibition at 10 µM (IGROV1)	inhibition at 10 µM (SNB-75)	inhibition at 10 µM (NCI-H522)	inhibition at 10 µM (SR)	inhibition at 10 µM (T-47D)	inhibition at 10 µM (UO-31)	inhibition at 10 µM (UACC-62)	inhibition at 10 µM (SF-539)	inhibition at 10 µM (MOLT-4)	inhibition at 10 µM (HT29)	inhibition at 10 µM (EKVX)	inhibition at 10 µM (CAKI-1)	inhibition at 10 µM (HOP-62)	inhibition at 10 µM (COLO 205)	inhibition at 10 µM (SK-OV-3)	inhibition at 10 µM (HL-60(TB))	Positive Cytostatic Effect (cell lines with percent growth from 0 to 50 / total number of cell lines) [1]	Positive Cytotoxic Effect (cell lines with percent growth of <0 / total number of cell lines) [1]	Sensitive/Total Cell Lines [1]	also measured
O=C1Nc2ccccc2C1=Cc1ccc(OCc2ccccc2)cc1 (mixture of isomers) [Compound 5a, (E/Z)-3-[4-(Benzyloxy)benzylidene] indolin-2-one]	-13.1%	-9.53%	14.6%	2.18%	14.6%	0.85%	14.9%	6.11%	-3.4%	2.73%	-6.64%	0.69%	2%	-4.06%	-13.1%	-5.78%	11.5%	0/59	0/59	0/59	inhibition at 10 µM (SW-620): -7.33%; antiproliferative activity (in words) [1]: weak antiproliferative activity; Mean Growth Percent [1]: −1.00; inhibition at 10 µM [1]: -16.2 to 15.8%; inhibition at 10 µM (MALME-3M): -7.59%; inhibition at 10 µM (HCT-15): 0.04%; inhibition at 10 µM (NCI-H322M): 0.44%; inhibition at 10 µM (LOX IMVI): -7.76%; inhibition at 10 µM (NCI-H226): 4.45%; inhibition at 10 µM (SN12C): 6.16%; inhibition at 10 µM (M14): 5.67%; inhibition at 10 µM (SK-MEL-5): 1.96%; inhibition at 10 µM (KM12): -3.15%; inhibition at 10 µM (SNB-19): 2.17%; inhibition at 10 µM (MDA-MB-435): -2.33%
O=C1Nc2ccc(F)cc2C1=Cc1ccc(OCc2ccccc2)cc1 (mixture of isomers) [Compound 5b, (E/Z)-3-[4-(Benzyloxy)benzylidene]-5-fluoroindolin-2-one]	-9.12%	2.92%	5.15%	5.91%	-0.14%	3.79%	2.55%	4.38%	4.67%	-0.05%	2.38%	0.65%	8.23%	-1.2%	1.92%	0.16%	7.92%	0/57	0/57	0/57	inhibition at 10 µM (SW-620): -2.34%; antiproliferative activity (in words) [1]: weak antiproliferative activity; Mean Growth Percent [1]: 1.62; inhibition at 10 µM [1]: -10.8 to 9.53%; inhibition at 10 µM (MALME-3M): 7.33%; inhibition at 10 µM (HCT-15): 3.51%; inhibition at 10 µM (NCI-H322M): 2.81%; inhibition at 10 µM (LOX IMVI): -6.24%; inhibition at 10 µM (NCI-H226): 9.53%; inhibition at 10 µM (SN12C): 0.27%; inhibition at 10 µM (M14): 3.39%; inhibition at 10 µM (SK-MEL-5): -0.59%; inhibition at 10 µM (KM12): 2.42%; inhibition at 10 µM (SNB-19): 1.26%; inhibition at 10 µM (MDA-MB-435): 5.59%
O=C1Nc2ccccc2C1=Cc1ccc(OCc2ccccn2)cc1 (mixture of isomers) [Compound 5e, (E/Z)-3-[4-(Pyridin-2-ylmethoxy]benzylidene) indolin-2-one]	1.6%	36.8%	34.7%	24.6%	57.7%	54.9%	61.2%	40.4%	35.3%	62.5%	16.2%	47.3%	40.8%	25.6%	-14.7%	16.8%	38.8%	11/56	0/56	11/56	The Most Sensitive Cell Line [1]: HOP-92; Mean Growth Percent [1]: 33.37; inhibition at 10 µM (MALME-3M): 25.4%; inhibition at 10 µM (HCT-15): 45.9%; inhibition at 10 µM (NCI-H322M): 29.5%; inhibition at 10 µM (NCI-H226): 40.8%; inhibition at 10 µM (SN12C): 47.7%; inhibition at 10 µM (M14): 8.3%; inhibition at 10 µM (SK-MEL-5): 48.4%; inhibition at 10 µM (KM12): 61.3%; inhibition at 10 µM (SNB-19): 39.3%; inhibition at 10 µM (MDA-MB-435): 10.1%
O=C1Nc2cc(Cl)ccc2C1=Cc1ccc(OCc2ccccn2)cc1 (mixture of isomers) [Compound 5h, (E/Z)-6-Chloro-3-[4-(pyridin-2-ylmethoxy)benzylidene]indolin-2-one]	16.7%	26.2%	63.3%	31.6%	42.8%	38%	38%	49.6%	57.7%	61.5%	19.7%	49.4%	28.8%	18.9%	-3.47%	4.39%	5.33%	11/56	0/56	11/56	The Most Sensitive Cell Line [1]: OVCAR-4; Mean Growth Percent [1]: 30.77; inhibition at 10 µM (MALME-3M): 18%; inhibition at 10 µM (HCT-15): 45.5%; inhibition at 10 µM (NCI-H322M): 24.7%; inhibition at 10 µM (NCI-H226): 48.6%; inhibition at 10 µM (SN12C): 24.9%; inhibition at 10 µM (M14): 20%; inhibition at 10 µM (SK-MEL-5): 24%; inhibition at 10 µM (KM12): 21.6%; inhibition at 10 µM (SNB-19): 20%; inhibition at 10 µM (MDA-MB-435): 23.9%
